We go through four compounds from patent publication US20230364052A1, “COMPOSITION AND METHOD FOR TREATING AUTISM” (ZELIRA THERAPEUTICS OPERATIONS PTY LTD, priority 2017, published 2023).

The assay has as its system patients with ASD diagnosis according to DSM-5. Kind of assay: Retrospective review of ASD patients treated with Cannabis extracts; clinical response by CGI-I Scale. The format is in vivo. The conditions noted are these: 66.6% of the ASD patients, treated before Cannabis therapy. The method, then:
A retrospective review of patients seen between June 2016 and March 2017 with ASD diagnosis according to DSM-5 (persistent deficits in social communication and interaction; restricted, repetitive patterns of behaviour, interests, or activities; symptoms present in the early developmental period; cause clinically significant impairment in social, occupational, or other areas of current functioning; not explained by intellectual disability nor global developmental delay) who were treated with Cannabis extracts for at least a 12-week period was completed. Demographic/clinical data, neuroimaging/EEG studies, vision, audition, genetic, and metabolic tests, parental/school/neuropsychological reports were reviewed.
The patients were administered with the cannabinoids sublingually (sublingual drops or “rice grain” method—see Example 1) twice daily (BID) for the duration of their treatment. The Cannabis extracts were obtained from the Moby Dick, Sharck, Durga mata or Nebula strains of Cannabis. For 10 out of the 21 patients included in the study, the total daily dosage of CBD and THC (measured by HPLC) and CBD:THC ratio were calculated and discussed further below.
The initial severity of symptoms presenting in the patients was assessed according to the criteria provided in the DSM-5, and are shown in FIG. 3.
The selected patients consisted of twenty (20) children and 1 adult (Mean age: 9 years, 10 month (range: 26 mo-22 yo), 15 males).
Mean follow-up after starting Cannabis therapy was 7.6 mo (range: 3-12 months). According to Cannabis strain, 71.5% of patients received balanced CBD:THC extracts; 19.0% high-CBD (e.g. Table 3; Formulations 1-3), and 9.5% high-THC extracts (e.g. Table 3; Formulation 6). The administered daily dose of CBD and THC was measured in 10 patients; 9 of them received […] and one high-THC extracts (Tables 2 and 3).
For `COC(=O)C(c1ccccc1)C1CCCCN1` (stereo not shown) [methylphenidate], the “response to previous treatment” value was “without good response and/or with undesirable adverse events”.

Regarding `OCCOCCN1CCN(C2=Nc3ccccc3Sc3ccccc32)CC1` [quetiapine], the “response to previous treatment” value is on record as “without good response and/or with undesirable adverse events”.

As for `Cc1nc2n(c(=O)c1CCN1CCC(c3noc4cc(F)ccc34)CC1)CCCC2` [risperidone], the “response to previous treatment” value was “without good response and/or with undesirable adverse events”.

On to `O=C1CCc2ccc(OCCCCN3CCN(c4cccc(Cl)c4Cl)CC3)cc2N1` [aripiprazole], for which the “response to previous treatment” value is recorded as “without good response and/or with undesirable adverse events”.
